Reference: patent US7863271B2, “2-aminobenzoxazole carboxamides as 5HT3 modulators” (Albany Molecular Research, Inc., priority 2006, dated 2011)
pKi: −log10 of the molar value. Where a name gives a salt, the structure may show the parent alone.

What was measured:
5-HT3 receptors = molecular target: T1, 5-HT3 receptors (Mus musculus, UniProt P23979); assay: Bezold-Jarisch assay in vivo: inhibition of serotonin induced bradycardia; settings: read-out: % Inhibition @ dose of test substance (p.o.); for inhibition at 3 mg/kg: 3 mg/kg p.o.; for inhibition at 3 mg/kg / inhibition at 1 mg/kg: 5-HT (0.1 mg/kg IV)-induced bradycardia 60 min later; for inhibition at 1 mg/kg: 1 mg/kg p.o.
T1 construct: from tissue; host or cells: whole animal: male or female CD-1(Crl.) mice
T1 sequence (P23979 24-489): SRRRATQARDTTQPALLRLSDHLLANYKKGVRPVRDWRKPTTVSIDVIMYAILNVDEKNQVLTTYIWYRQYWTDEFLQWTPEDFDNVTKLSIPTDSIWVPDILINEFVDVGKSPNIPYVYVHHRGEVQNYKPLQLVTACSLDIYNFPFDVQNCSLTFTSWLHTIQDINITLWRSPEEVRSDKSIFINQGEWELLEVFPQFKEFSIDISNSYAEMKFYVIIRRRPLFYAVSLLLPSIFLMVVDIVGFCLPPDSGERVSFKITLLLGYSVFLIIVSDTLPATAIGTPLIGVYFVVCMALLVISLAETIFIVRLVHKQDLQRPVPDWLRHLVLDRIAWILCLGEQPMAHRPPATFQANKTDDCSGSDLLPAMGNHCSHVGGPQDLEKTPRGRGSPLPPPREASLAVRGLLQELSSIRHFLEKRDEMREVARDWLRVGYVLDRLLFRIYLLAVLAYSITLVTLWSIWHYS
Experimental: Bezold-Jarisch Assay in vivo. […] Arch. Int. Pharmacodyn. 277: 235-252, 1985]. Test substances and vehicle [2% Tween 80] were each administered orally (0.3 to 3 mg/kg) to a group of 5 male or female CD-1(Crl.) mice each weighing 24±2 g. A dosing volume of 10 mL/kg was used. Sixty minutes later, 5-HT (0.1 mg/kg IV)-induced bradycardia was recorded in urethane (2225-2500 mg/kg IP, given 10 minutes before 5-HT)-anesthetized animals.
In vivo 5-HT3 Antagonism in the mouse (Bradycardia Reflex)

5-HT3 [1] = molecular target: T2, 5-HT3 (Homo sapiens, UniProt P46098); assay: Compound affinity for the human 5-HT3 receptor (Assay B), SPA radioligand binding with [9-methyl-3H]BRL-43694; design: purchased Perkin Elmer
T2 sequence (P46098 24-478): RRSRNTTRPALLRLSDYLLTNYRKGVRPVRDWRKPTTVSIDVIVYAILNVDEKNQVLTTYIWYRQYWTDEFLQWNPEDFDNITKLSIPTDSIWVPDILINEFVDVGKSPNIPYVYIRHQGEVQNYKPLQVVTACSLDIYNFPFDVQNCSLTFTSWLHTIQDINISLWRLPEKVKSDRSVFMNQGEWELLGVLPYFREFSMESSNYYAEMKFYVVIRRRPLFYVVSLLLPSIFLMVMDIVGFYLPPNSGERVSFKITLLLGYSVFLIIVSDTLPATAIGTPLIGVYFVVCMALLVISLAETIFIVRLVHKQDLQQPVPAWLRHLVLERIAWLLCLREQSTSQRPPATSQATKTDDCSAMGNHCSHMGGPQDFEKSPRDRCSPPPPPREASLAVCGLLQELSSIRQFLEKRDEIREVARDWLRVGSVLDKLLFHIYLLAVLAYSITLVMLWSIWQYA
How it was run: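 Ten competitor concentrations in duplicate; specific binding (total minus nonspecific) fitted for IC50, converted to Ki by Cheng-Prusoff.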

5-HT3 [2] = molecular target: T2, 5-HT3; assay: Compound affinity for the human 5-HT3 receptor (Assay A), [3H]-GR65630 radioligand binding; design: host or cells: N1E-155 cell lines (so in the source); settings: annotated (A): Assay A
Experimental: Compound Affinity for the human 5-HT3 Receptor (Assay A)
Compounds were tested by MDS Pharma Services—Taiwan Ltd., 158 Li-The Road, Peitou, Taipei, Taiwan 112 R.O.C. In order to evaluate the relative affinity of the various compounds for the human 5-HT3 receptor, N1E-155 cell lines were developed to express the target protein. For binding, these cells were homogenized, centrifuged and washed with buffer (20 mM HEPES, 150 mM NaCl, pH 7.4) then suspended in 0.5 mL of buffer and [3H]-GR65630 added at a concentration of 3.5×10^-10 M. An initial single concentration of 10^-7 M of the test compound was then added. Incubation was carried out at room temperature for 60 minutes at 25° C. then was terminated by rapid removal of the incubation medium. Radioactivity was assessed using liquid scintillation spectrophotometry after exposure to scintillation cocktail for at least three hours. […] Ki values were then calculated from the Cheng-Prusoff equation. In all of the above binding studies the non-specific determinant was MDL-72222 (1.0 μM).

5-HT3 [3] = molecular target: T2, 5-HT3; assay: 5-HT3 inhibitor screen with potency threshold (not further specified); format: binding
[4] = Assay B (method B unless otherwise annotated), read-out: 5-HT3 Ki

Compound | inhibition at 3 mg/kg (5-HT3 receptors) [%] | pKi (5-HT3 [1]) | other results
C[C@@H]1CNC[C@H](C)N1c1nc2c(C(=O)NC3CC4CCCC(C3)N4C)cccc2o1 (relative stereo) [Example 50, Endo-N-(9-Methyl-9-azabicyclo[3.3.1]nonan-3-yl)-2-((2S*,6R*)-2,6-dimethylpiperazin-1-yl)benzoxazole-4-carboxamide Hydrochloride] | 80 | 7.87 | –
CN(C)c1nc2c(C(=O)N[C@@H]3CN4CCC3CC4)cccc2o1 [Example 8, (S)—N-(quinuclidine-8-yl)-2-(dimethylamino)benzoxazole-4-carboxamide Hydrochloride] | – | – | inhibition at 0.3 mg/kg (5-HT3 receptors): 83%; pKi (5-HT3 [1]; [4]): 7.74
CSc1nc2c(C(=O)N[C@H]3C[C@H]4CCC[C@@H](C3)N4C)cccc2o1 [Example 13, Endo-N-(9-Methyl-9-azabicyclo[3.3.1]non-3-yl)-2-methylthiobenzoxazole-4-carboxamide Hydrochloride] | – | – | pKi (5-HT3 [2]): 8.34
CSc1nc2c(C(=O)N[C@@H]3CN4CCC3CC4)cccc2o1 [Example 14, (S)—N-(quinuclidine-8-yl)-2-(methylthio)benzoxazole-4-carboxamide Hydrochloride] | – | – | pKi (5-HT3 [2]): 8.59
C[C@H]1COCCN1c1nc2c(C(=O)NC3CC4CCCC(C3)N4C)cccc2o1 (stereo partly drawn) [Example 49, Endo-N-(9-Methyl-9-azabicyclo[3.3.1]nonan-3-yl)-2-((S)-3-methylmorpholino)benzoxazole-4-carboxamide Hydrochloride] | – | – | inhibition at 1 mg/kg (5-HT3 receptors): 86%
C[C@H]1CN(C)CCN1c1nc2c(C(=O)NC3CC4CCCC(C3)N4C)cccc2o1 (stereo partly drawn) [Example 55, Endo-N-(9-Methyl-9-azabicyclo[3.3.1]nonan-3-yl)-2-((S)-2,4-dimethylpiperazin-1-yl)benzoxazole-4-carboxamide Hydrochloride] | – | 7.54 | level of potency established as the threshold for the screen (5-HT3 [3]): has not exhibited the level of potency established as the threshold for the screen
C[C@H]1COC[C@H](C)N1c1nc2c(C(=O)NC3CC4CCCC(C3)N4C)cccc2o1 (stereo partly drawn) [Example 75, Endo-N-(9-Methyl-9-azabicyclo[3.3.1]nonan-3-yl)-2-((3S,5S)-3,5-dimethylmorpholino)benzoxazole-4-carboxamide Hydrochloride] | – | 9.23 | inhibition at 1 mg/kg (5-HT3 receptors): 98%
Nc1nc2c(C(=O)NC3CN4CCC3CC4)cccc2o1 [Example 93, (S)—N-(Quinulidin-8-yl)-2-aminobenzoxazole-4-carboxamide Hydrochloride] | 85 | 7.92 | –
Nc1nc2c(C(=O)NC3CN4CCC3CC4)cc(Cl)cc2o1 (stereo not shown) [Example 103, Hydrochloride] | 97 | 8.29 | –
Nc1nc2c(C(=O)NC3CN4CCC3CC4)cc(F)cc2o1 [Example 116, (S)—N-(Quinulidin-8-yl)-2-amino-6-fluorobenzoxazole-4-carboxamide Hydrochloride] | 97 | 8.03 | –
CC(C)[C@@H]1COCCN1c1nc2c(C(=O)NC3CC4CCCC(C3)N4C)cccc2o1 (stereo partly drawn) [Example 152, Endo-N-(9-Methyl-9-azabicyclo[3.3.1]nonan-3-yl)-2-((R)-3-isopropylmorpholino)benzoxazole-4-carboxamide Hydrochloride] | – | – | pKi (5-HT3 [1]; [4]): 7.12
Endo-N-(9-Methyl-9-azabicyclo[3.3.1]nonan-3-yl)-2-((3aS,6aS)-hexahydropyrrolo[3,4-b]pyrrol-5(1H)-yl)benzoxazole-4-carboxamide Hydrochloride [Example 46] | – | – | pKi (5-HT3 [1]; [4]): 6.55
